Results reported in US20070213291A1, “Therapeutically useful synthetic oligonucleotides” (priority 1999, published 2007).
Values joined by “and” are separate entries in the source; they are usually repeats but may differ in a detail not shown here. Identical values can stand only once.

Legend:
caspase 3 and caspase 7 = assay: Caspase 3 and caspase 7 activation by peptide-sequence constructs in Jurkat cells; type: cell-based, human; conditions: 72 h, present-tense example
Experimental: Reactive carboxylate and reactive amine groups are deprotected subsequent to conjugation,
To determine caspase activation, control and treated cells are washed, fixed, permeabilized and incubated with an FITC-conjugated antibody that recognizes the active form of the caspase (Pharmingen, San Diego, Calif.) using the conditions recommended by the manufacturer. Fluorescence associated with active caspase 3 is analyzed by flow cytometry on a FACSCALIBUR using the program CellQUEST (Becton Dickinson). Alternatively, caspase activation is determined colorimetrically using an assay based on the cleavage of a caspase-specific peptide conjugated to the color reporter molecule p-nitroanilide, which can be quantitated spectrophotometrically at a wavelength of 405 nm.
Jurkat human leukemia T cells are incubated for 72 h with NH2—YVAD-CO-GG(GT)GG, NH2-DEVD-CO-GG(GT)GG, NH2—EGD-COO-GG(GT)GG, NH2-YVAD-CO-[…], NH2-DVED-CO-[…] and NH2—IEGD-CO-[…]. Caspase 3 and caspase 7 activation are determined.

[1] = test system: A20 murine B leukemia cells; assay: Inhibition of A20 cell proliferation (MTT); type: cell-based; conditions: 100 μg/ml, 48 h
Experimental: (§1) Cells were seeded in 6 (1 ml/well), 24 (0.5 ml/well) or 96 (0.1 ml/well) well flat-bottom microplates and were maintained at 37° C. in a 5% CO2 atmosphere. Unless stated otherwise, 2.5×10^5 cells/ml were incubated with 0 μg/ml (control) and 100 μg/ml (treated) of 2 to 45 base sequences containing A, C, G and T for 48 h.
(§2) Cell proliferation was measured using dimethylthiazol-diphenyl-tetrazolium (MTT) reduction (Mosman et al. J. Immunol. Methods 65:55, 1983). MTT was measured at a wavelength of 570 nm using a multiplate spectrophotometer reader (ELX800, Bio-TEK Instruments Inc., Winooski, Vt.).
A20 murine leukemia B cells are a suspension tumor model. A20 murine leukemia B cells were incubated with 6 base GT sequences (Table 19).

[2] = test system: PC-3 human prostate cancer cells; assay: Inhibition of PC-3 cell proliferation (MTT); type: cell-based; conditions: 100 μg/ml, 48 h, 5×10^5 cells/ml
Experimental: as §1, §2
PC-3 prostate cancer cells are a p53 mutated, androgen-independent human solid tumor model. PC-3 cells (5×10^5 cells/ml) were incubated with 3 and 6 base GT sequences (Table 8).

[3] = test system: human peripheral blood mononuclear cells; assay: Cytokine production by human PBMC (ELISA); type: cell-based; conditions: PBMC of 7 healthy humans, 100 μg/ml, 48 h
How it was run: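 PBMC from 7 healthy donors, Ficoll-isolated; 1×10^6 cells incubated with 100 μg/ml oligonucleotide sequence for 48 h at 37 °C, 5% CO2. IL-1beta, IL-6, IL-10, IL-12 (p70 plus free p40) and TNF-alpha measured by ELISA in supernatant, expressed as fold increase over control cells.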

chimpanzee PBMCs = assay: Cytokine production by chimpanzee PBMC (ELISA); type: cell-based; conditions: PBMC of 4 healthy chimpanzees, 100 μg/ml, 48 h
Experimental: (§3) Unless stated otherwise, 1×10^6 cells were incubated with 100 μg/ml of each of the sequences tested for 48 h at 37° C. in 5% CO2. Production of cytokines IL-6, IL-10, IL-12, IL-1beta and TNF-alpha was determined in pg/ml in 100 μl of culture supernatant using the appropriate commercial ELISA (BioSource, Camarillo Calif.). The IL-12 ELISA measures both IL-12 p70 complex and free p40 subunit. Results are expressed as the “fold” (×) increase in cytokine production by treated cells compared to control cells.
PBMCs were isolated from 4 healthy chimpanzees as in Example 35. Chimpanzee PBMCs were incubated with 6 base GT, AGT, CGT, AG, CG and GG sequences and production of the cytokines IL-10, IL-12 and TNF-alpha was determined (Table 41).

rhesus monkey PBMCs = assay: Cytokine production by rhesus monkey PBMC (ELISA); type: cell-based; conditions: PBMC of 4 healthy rhesus monkeys, 100 μg/ml, 48 h
Experimental: as §3
PBMCs were isolated from 4 healthy rhesus monkeys as in Example 35. PBMCs were incubated with 6 base GT, AGT, CGT, AG, CG ands GG sequences and production of the cytokines IL-6, IL-12 and TNF-alpha was determined (Table 42).

[4] = test system: LNCaP human prostate cancer cells; assay: Inhibition of LNCaP cell proliferation (MTT); type: cell-based; conditions: 100 μg/ml, 48 h, 5×10^5 cells/ml
Experimental: as §1, §2
LNCaP prostate cancer cells are a TGF-beta 1 receptor negative, […], metastatic human solid tumor model. LNCaP cells (5×10^5 cells/ml) were incubated with 6 base GT sequences (Table 9).

[5] = test system: THP-1 human acute monocytic leukemia cells; assay: Cytokine production by THP-1 cells (ELISA); type: cell-based; conditions: THP-1, 1×10^6 cells, 100 μg/ml, 48 h; for ↑ IL-12 (fold increase treated vs control cells): p70 complex and free p40
How it was run: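 Read-out is fold increase in supernatant cytokine versus control cells, measured by ELISA (IL-12 ELISA counts p70 complex plus free p40). Unless noted, sequences were tested at 100 μg/ml on 1×10^6 cells, incubated 48 h, 37° C, 5% CO2.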

[6] = test system: THP-1 human acute monocytic leukemia cells; assay: Inhibition of THP-1 cell proliferation (MTT); type: cell-based; conditions: 100 μg/ml, 48 h, 1.6×10^6 cells/ml
Experimental: as §1, §2
THP-1 acute monocytic leukemia cells are a p53 null human suspension tumor model. THP-1 cells (1.6×10^6 cells/ml) were incubated with 6 base GT sequences (Table 10).

[7] = test system: Jurkat human leukemia T cells; assay: Inhibition of Jurkat human leukemia T cell proliferation (MTT reduction); type: cell-based; conditions: 100 μg/ml sequence, 48 h, 2.5×10^5 cells/ml
How it was run: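 Read-out is MTT absorbance at 570 nm after 48 h. Sequences of 2 to 45 bases (A, C, G, T) tested at 100 μg/ml against untreated control, with 2.5×10^5 Jurkat cells/ml held at 37° C under 5% CO2.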

[8] = test system: HL-60 human promyelocytic leukemia cells; assay: Inhibition of HL-60 cell proliferation (MTT); type: cell-based; conditions: 100 μg/ml, 48 h
Experimental: as §1, §2
HL-60 promyelocytic leukemia cells are a p53 mutated human suspension tumor model. HL-60 cells were incubated with 6 base GT sequences (Table 6).

[9] = test system: MCF-7 human breast cancer cells; assay: Inhibition of MCF-7 cell proliferation (MTT); type: cell-based; conditions: 100 μg/ml, 48 h, 5×10^5 cells/ml
Experimental: as §1, §2
MCF-7 human breast cancer cells are a caspase 3 negative, estrogen-dependent human solid tumor model. MCF-7 cells (5×10^5 cells/ml) were incubated with 3 and 6 base GT sequences (Table 7).

[10] = test system: D-17 canine osteosarcoma cells; assay: Inhibition of D-17 cell proliferation (MTT); type: cell-based; conditions: 100 μg/ml, 48 h, 5×10^5 cells/ml
Experimental: as §1, §2
(§4) D-17 canine osteosarcoma cells and CF-51 canine mammary gland cancer cells are solid tumor models. D-17 canine osteosarcoma cells (5×10^5 cells/ml) (Table 20) and CF-51 canine mammary gland cancer cells (5×10^5 cells/ml) (Table 21) were incubated with 6, 9, 17, 27 and 33 base GT-sequences and with a 15 base ACG sequence.

[11] = test system: CF-51 canine mammary gland cancer cells; assay: Inhibition of CF-51 cell proliferation (MTT); type: cell-based; conditions: 100 μg/ml, 48 h, 5×10^5 cells/ml
Experimental: as §1, §2, §4

Substance	processing of inactive caspase 3 and caspase 7 to active forms (caspase 3 and caspase 7)	% INHIBITION of A20 murine B leukemia cell proliferation [1] [%]	% INHIBITION of PC-3 human prostate cancer cell proliferation [2] [%]	IL-1 beta fold increase: mean +/− SD [3]	IL-6 fold increase: mean +/− SD [3]	IL-10 fold increase: mean +/− SD [3]	IL-12 fold increase: mean +/− SD [3]	IL-10 fold increase: mean +/− SD (chimpanzee PBMCs)	IL-12 fold increase: mean +/− SD (chimpanzee PBMCs)	TNF-alpha fold increase: mean +/− SD (chimpanzee PBMCs)	IL-10 fold increase: mean +/− SD (rhesus monkey PBMCs)	IL-12 fold increase: mean +/− SD (rhesus monkey PBMCs)	TNF-alpha fold increase: mean +/− SD (rhesus monkey PBMCs)	% INHIBITION of LNCaP human prostate cancer cell proliferation [4] [%]	↑ IL-6 (fold increase treated vs control cells) [5] [x]	↑ IL-12 (fold increase treated vs control cells) [5] [x]	% INHIBITION of THP-1 human acute monocytic leukemia cell proliferation [6] [%]	% INHIBITION of Jurkat human leukemia T cell proliferation [7]	% INHIBITION of HL-60 human promyelocytic leukemia cell proliferation [8] [%]	% INHIBITION of MCF-7 human breast cancer cell proliferation [9] [%]	also measured
NH2—IEGD-CO-AACCACAAGCCCAAC [NH2—IEGD-CO-ACG]	do not induce processing of inactive pro-caspase 3 to active caspase 3 or of inactive caspase 7 to active caspase 7																				
NH2—YVAD-CO-GG(GT)GG [NH2—YVAD-CO-GT]	induce processing of inactive caspase 3 to active caspase 3 and of inactive caspase 7 to active caspase 7																				
TGTGTG [SEQ ID NO:9]		22	16	1.2 +/− 0.4 fold increase	8.3 +/− 12.8 fold increase	1.0 +/− 0.1 fold increase	2.7 +/− 2.6 fold increase	2.3 +/− 1.3 fold increase	13.5 +/− 8.9 fold increase	11.3 +/− 6.9 fold increase	1.1 +/− 0.2 fold increase	10.6 +/− 4.2 fold increase	14.3 +/− 6.3 fold increase	−9	4.0	1.8	0	37% and 36%	7	6	
TGTGTGTGTGTGTGTGTG (unmodified DNA) [SEQ ID NO:17]															2.2			56%			% INHIBITION of D-17 canine osteosarcoma cell proliferation [10]: 8%; % INHIBITION of CF-51 canine mammary gland cancer cell proliferation [11]: 8%
TTTGTT [SEQ ID NO:23]		5	14	1.0 +/− 0.1 fold increase	11.8 +/− 9.0 fold increase	1.0 +/− 0.1 fold increase	1.1 +/− 0.3 fold increase	1.5 +/− 0.6 fold increase	12.9 +/− 8.2 fold increase	9.0 +/− 5.5 fold increase	1.0 +/− 0.1 fold increase	6.7 +/− 3.6 fold increase	4.4 +/− 3.8 fold increase	14	4.9	3.5	8	31%	13	7	
